The values that follow come from patent publication US11274090B2, “P300/CBP HAT inhibitors” (Constellation Pharmaceuticals, Inc., priority 2018, dated 2022).

The target in one assay is full length p300 (Homo sapiens (Human), UniProt Q09472). As to the kind of experiment: full length p300 SPA assay. The assay is classed as biochemical. To be noted: average of at least 2 replicate titrations, read-out: FL P300 IC50.
Assay [1] relates to acetylation of chromatin at H3K18 (p300 and CBP) in HCT-116 cells. As to the kind of experiment: H3K18Ac MSD cellular assay. The format is cell-based. The conditions noted are these: 2 hr treatment. How it is done: Select compounds were also evaluated in a H3K18Ac MSD cellular assay that measures the ability of compounds to inhibit the acetylation of chromatin at H3K18, a process catalyzed by p300 and CBP. In a typical experiment the p300 HAT inhibitory activity inside cells of the compounds described herein was determined in accordance with the following experimental method. 20 k HCT-116 cells per well are plated in 75 μL RPMI+10% FBS media the night before treatment. Compounds plated in DMSO at 4× final concentration are resuspended in 30 μL RPMI+10% FBS, then 25 μL is combined with corresponding wells containing cells. Treated cells are incubated for 2 hr at 37° C., then lysed in 500 μL final volume and frozen at −80° C. MSD plates (Meso Scale Discovery) are coated overnight at 4° C. with 60 μL 1:500 α-total histone antibody (Millipore MAB3422) in PBS. Plates are then blocked with 5% BSA in TBST shaking at RT for 1 hr, washed, and 30 μL lysate added to each well for 2 hr shaking at RT. Plates are washed and 25 μL 1:216 α-H3K18ac antibody (CST 9675) in PBS added, then incubated for 1 hr shaking at RT. Plates are washed again, then 25 μL 1:1000 Sulfo-Tag goat α-rabbit antibody (Meso Scale Discovery R32Ab-1) in PBS is added for 1 hr shaking at RT. Plates are washed once more, then 150 μL 1× Read Buffer (MSD #R92TD-3) is added to all wells and read on MSD SECTOR Imager 2400 using the conventional read setup.

Assay [2] concerns the target p300 HAT domain (residues 1287-1666) (Homo sapiens (Human), UniProt Q09472). As to the kind of experiment: p300 HAT SPA assay (scintillation proximity assay, acetylation of biotinylated H3(1-21) peptide). The format is biochemical. The conditions noted are these: average of at least 2 replicate titrations. Summed up: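 Purified p300 HAT domain reaction transferred to streptavidin plates to capture biotinylated H3(1-21) peptide, incubated 1.5 hr at RT, and read by scintillation proximity. IC50 values derived from concentration-response data.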
Background: SPA uses beads or plates that emit light when radiolabelled molecules are held near them.

Chain of p300 HAT domain (residues 1287-1666) (Q09472 1287-1666): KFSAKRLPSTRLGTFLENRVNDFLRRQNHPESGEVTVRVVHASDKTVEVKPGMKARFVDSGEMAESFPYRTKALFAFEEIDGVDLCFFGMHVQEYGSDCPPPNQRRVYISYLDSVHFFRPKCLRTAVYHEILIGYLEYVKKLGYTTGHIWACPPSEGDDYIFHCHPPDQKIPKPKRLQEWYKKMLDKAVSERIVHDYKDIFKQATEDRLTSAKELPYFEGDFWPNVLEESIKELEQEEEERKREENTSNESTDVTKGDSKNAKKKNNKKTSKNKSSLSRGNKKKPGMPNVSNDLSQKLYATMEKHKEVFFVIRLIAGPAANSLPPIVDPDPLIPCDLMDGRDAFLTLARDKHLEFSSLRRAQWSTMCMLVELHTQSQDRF
Chain of full length p300 (Q09472 whole entry): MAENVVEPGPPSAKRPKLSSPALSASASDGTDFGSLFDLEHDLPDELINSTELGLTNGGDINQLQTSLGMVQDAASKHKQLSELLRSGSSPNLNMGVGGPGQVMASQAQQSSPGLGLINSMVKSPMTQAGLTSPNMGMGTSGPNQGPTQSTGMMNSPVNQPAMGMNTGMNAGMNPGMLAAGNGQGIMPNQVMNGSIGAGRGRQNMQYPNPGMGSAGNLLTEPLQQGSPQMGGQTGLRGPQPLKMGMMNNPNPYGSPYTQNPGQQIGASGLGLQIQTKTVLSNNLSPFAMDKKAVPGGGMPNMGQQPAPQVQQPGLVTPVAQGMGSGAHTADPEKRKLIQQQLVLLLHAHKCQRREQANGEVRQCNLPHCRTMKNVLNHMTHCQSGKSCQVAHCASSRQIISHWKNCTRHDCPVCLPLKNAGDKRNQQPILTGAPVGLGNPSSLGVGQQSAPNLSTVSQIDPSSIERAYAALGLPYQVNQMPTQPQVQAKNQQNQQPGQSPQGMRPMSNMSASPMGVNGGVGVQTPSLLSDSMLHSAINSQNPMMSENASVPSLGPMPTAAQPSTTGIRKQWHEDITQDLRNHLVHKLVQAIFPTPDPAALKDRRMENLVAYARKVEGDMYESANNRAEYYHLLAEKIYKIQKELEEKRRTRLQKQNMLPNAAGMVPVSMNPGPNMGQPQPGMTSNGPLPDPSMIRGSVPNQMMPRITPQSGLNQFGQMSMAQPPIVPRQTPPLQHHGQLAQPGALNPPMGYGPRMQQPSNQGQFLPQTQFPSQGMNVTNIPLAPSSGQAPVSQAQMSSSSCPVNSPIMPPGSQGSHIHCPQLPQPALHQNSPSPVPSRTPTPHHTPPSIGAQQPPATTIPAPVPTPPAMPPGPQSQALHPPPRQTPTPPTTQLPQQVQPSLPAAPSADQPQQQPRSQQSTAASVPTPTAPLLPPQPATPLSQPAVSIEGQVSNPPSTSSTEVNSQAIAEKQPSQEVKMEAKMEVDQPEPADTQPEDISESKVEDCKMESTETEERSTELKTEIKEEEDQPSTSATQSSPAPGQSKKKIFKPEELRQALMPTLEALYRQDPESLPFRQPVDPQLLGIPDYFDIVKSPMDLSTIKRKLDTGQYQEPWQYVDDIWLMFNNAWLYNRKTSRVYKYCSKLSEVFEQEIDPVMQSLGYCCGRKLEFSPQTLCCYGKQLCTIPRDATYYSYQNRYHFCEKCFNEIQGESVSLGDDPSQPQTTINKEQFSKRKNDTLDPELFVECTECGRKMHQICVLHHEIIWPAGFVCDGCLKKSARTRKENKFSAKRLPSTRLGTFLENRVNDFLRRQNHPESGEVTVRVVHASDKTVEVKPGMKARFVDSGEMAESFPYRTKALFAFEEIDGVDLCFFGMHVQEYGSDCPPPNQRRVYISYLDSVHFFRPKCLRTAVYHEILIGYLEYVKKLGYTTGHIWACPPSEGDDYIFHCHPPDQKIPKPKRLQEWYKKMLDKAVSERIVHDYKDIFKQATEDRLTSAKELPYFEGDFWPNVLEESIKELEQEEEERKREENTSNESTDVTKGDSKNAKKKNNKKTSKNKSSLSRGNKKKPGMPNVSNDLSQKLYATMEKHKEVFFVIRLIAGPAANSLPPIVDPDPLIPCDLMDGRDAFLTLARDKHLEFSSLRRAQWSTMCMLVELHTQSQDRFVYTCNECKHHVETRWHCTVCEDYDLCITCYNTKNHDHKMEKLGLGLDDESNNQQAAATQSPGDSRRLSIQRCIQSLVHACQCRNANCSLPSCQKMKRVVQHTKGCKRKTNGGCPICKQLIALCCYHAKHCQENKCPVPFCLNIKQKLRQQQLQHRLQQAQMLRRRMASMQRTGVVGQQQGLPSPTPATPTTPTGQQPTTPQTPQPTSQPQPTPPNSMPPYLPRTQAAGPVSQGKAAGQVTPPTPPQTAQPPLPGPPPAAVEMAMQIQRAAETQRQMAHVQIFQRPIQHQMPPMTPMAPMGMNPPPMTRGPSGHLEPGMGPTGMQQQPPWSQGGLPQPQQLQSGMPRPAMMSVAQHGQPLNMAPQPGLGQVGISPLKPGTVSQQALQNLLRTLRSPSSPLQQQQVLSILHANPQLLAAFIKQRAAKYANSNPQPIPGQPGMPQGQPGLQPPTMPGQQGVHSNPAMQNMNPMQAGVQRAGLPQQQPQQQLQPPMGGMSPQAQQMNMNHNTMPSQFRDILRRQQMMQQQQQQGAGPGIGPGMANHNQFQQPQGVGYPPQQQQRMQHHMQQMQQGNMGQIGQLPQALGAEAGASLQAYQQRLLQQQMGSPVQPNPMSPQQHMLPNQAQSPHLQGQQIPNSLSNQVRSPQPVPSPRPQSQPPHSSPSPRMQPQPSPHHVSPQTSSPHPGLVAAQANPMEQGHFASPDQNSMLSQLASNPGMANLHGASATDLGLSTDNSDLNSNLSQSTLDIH

As for `CC(CNC(C(=O)Nc1ccc(N2CCN(C)C(=O)C2)cn1)c1ccccc1)c1ccc(C#N)cc1` (single isomer, unassigned) [101 Isomer 1], the IC50 stood at 1.14 nM at full length p300 and 16.9 nM in assay [2]. The midpoint of the response in assay [1] (Homo sapiens), the EC50, lay at 30.7 nM.
With `CC(CNC(C(=O)Nc1ccc(-c2cn[nH]c2)cn1)c1ccccc1)c1ccc(C#N)cc1` (single isomer, unassigned) [104 Isomer 2], the figures for the IC50 (on full length p300; in assay [2]) were under 0.5 nM and 9.1 nM, respectively. In assay [1] (Homo sapiens), the midpoint of the response, the EC50, lay at 14 nM.
As for `CC(CNC(C(=O)Nc1ccc(-c2cnn(C)c2)cn1)c1cnn(C)c1)c1ccc(C#N)cc1` (single isomer, unassigned) [127 Isomer 4], the IC50 on full length p300 is under 3.24 nM; in assay [2] it was 21.9 nM. The compound also yielded an EC50 in assay [1] (Homo sapiens) of 18.8 nM.
Consider `CC(CNC(C(=O)Nc1ccc(-c2cnn(C(F)F)c2)cn1)c1cnn(C)c1)c1ccc(C#N)cc1` (single isomer, unassigned) [128 Isomer 4], for which the IC50 is under 3.24 nM at full length p300 and 24.9 nM in assay [2]. In assay [1] (Homo sapiens), the EC50 worked out at 29.6 nM.
With `Cc1n[nH]c(C)c1-c1ccc(NC(=O)C(NC[C@@H](C)c2ccc(C#N)cc2)c2ccccc2)nc1` (single isomer, unassigned) [133 Isomer 2], the IC50 on full length p300 was under 3.24 nM; in assay [2], 14.4 nM. Moreover, in assay [1] (Homo sapiens), the midpoint of the response, the EC50, lay at 40.6 nM.
Consider `C[C@H](CNC(C(=O)Nc1ccc(-c2ccc(=O)n(C)n2)cn1)c1ccccc1)c1ccc(C#N)cc1` (single isomer, unassigned) [134 Isomer 2], for which the values for the IC50 (on full length p300; in assay [2]) were under 3.24 nM and 32.1 nM, respectively. The compound further displayed an EC50 in assay [1] (Homo sapiens) of 77.7 nM.
Regarding `CC(=O)N1CCN(c2ccc(NC(=O)C(NC[C@@H](C)c3ccc(C#N)cc3)c3cccc(F)c3)nc2)CC1` (single isomer, unassigned) [135 Isomer 2], the figures for the IC50 (at full length p300; in assay [2]) were under 3.24 nM and 9.3 nM, respectively. A half-maximal effect in assay [1] (Homo sapiens) (EC50) was put at 56 nM.
Consider `CC(CNC(C(=O)Nc1ccc(N2CCN(C)C(=O)C2)cn1)c1cnn(C)c1)c1ccc(C#N)cc1` (single isomer, unassigned) [136 Isomer 3], for which the IC50 on full length p300 is under 3.24 nM; in assay [2], 26.4 nM. Besides, in assay [1] (Homo sapiens), the EC50 turned out to be 70.1 nM.
Take `C[C@H](CNC(C(=O)Nc1ccc(N2CCN(C)C(=O)C2)cn1)c1cccc(F)c1)c1ccc(C#N)cc1` (single isomer, unassigned) [137 Isomer 2]: the IC50 at full length p300 is under 3.24 nM; in assay [2] it was 8.62 nM. For the same compound, in assay [1] (Homo sapiens), the response was half-maximal at 27.3 nM (EC50).
In the case of `C[C@H](CNC(C(=O)Nc1ccc(-c2cnn(CC(=O)N(C)C)c2)cn1)c1cccc(F)c1)c1ccc(C#N)cc1` (single isomer, unassigned) [138 Isomer 2], the IC50 is under 3.24 nM at full length p300 and 6.08 nM in assay [2]. This compound also gave an EC50 in assay [1] (Homo sapiens) of 48.2 nM.
Regarding `Cc1ccc(C(C)CNC(C(=O)Nc2ccc(-c3cnn(C)c3)cn2)c2ccccc2)cn1` (single isomer, unassigned) [143 Isomer 2], the IC50 is under 3.24 nM on full length p300 and 21.2 nM in assay [2]. The compound further returned an EC50 in assay [1] (Homo sapiens) of 24.8 nM.
The like results for `Cn1cc(-c2ccc(NC(=O)C(NCCc3ccc(Cl)cc3)c3cnn(C)c3)nc2)cn1` (single isomer, unassigned) [148 Isomer 1] were, in that order, 2.35 nM, 50.8 nM and 84.5 nM.
For the compound “(S,R)-, (R,S)-, (S,S)-, (R,R)-(2-((2-(4-cyanophenyl)propyl)amino)-N-(5-(1-(difluoromethyl)-1H-pyrazol-4-yl)pyridin-2-yl)-2-phenylacetamide [20 Isomer 2]”, the IC50 is 1.64 nM at full length p300 and 13.7 nM in assay [2]. Further, in assay [1], the concentration for a half-maximal effect (EC50) was 22.6 nM.

As a reminder, the IC50 is the concentration that gives 50% inhibition. The term EC50 denotes the concentration giving half of the maximal effect.
